Data: US8853215B2, “Derivatives of N-acyl-N′-phenylpiperazine useful (inter alia) for the prophylaxis or treatment of diabetes” (Takeda Pharmaceutical Company Limited, priority 2009, dated 2014)

Biological target: human RBP4 (Homo sapiens (Human), UniProt P02753)
Test: Binding assay by Retinol-RBP4-TTR ELISA
Settings: retinol 50 nM, His-tagged human RBP4, biotinylated human TTR; read-out: human RBP4 binding inhibitory activity (IC50 nM)
Description: The action of the compound of the present invention to inhibit binding of RBP4 and retinol and TTR was evaluated using the Retinol-RBP4-TTR ELISA system shown below.
1F: Binding Assay by Retinol-RBP4-TTR ELISA
This ELISA system detects a complex of RBP4 and TTR based on a retinol-dependent binding of RBP4 to TTR.
His-tagged human RBP4 used was prepared in the above-mentioned 1C.
Biotinylate human TTR used was prepared in the above-mentioned 1E.
Streptavidin (20 μl) (10 μg/ml Streptavidin type II (Wako Pure Chemical Industries, Ltd.), 10 mM Tris-HCl (pH 7.5), 10 mM NaCl) was added to a 384 well black plate (Nunc MaxiSorp, Thermo Fisher Scientific Inc.), and the plate was subjected to centrifugation (1000 rpm, 1 min) and coated overnight at 4° C. The plate was washed twice with PBST (PBS, 0.05% Tween 20, 100 μl/well) and blocked with 25% Block Ace (Snow Brand Milk Products Co., Ltd., PBS, 100 μl/well). The plate was subjected to centrifugation (1000 rpm, 1 min) and incubated at room temperature for 4 hr or overnight at 4° C. The plate was washed twice with PBST (PBS, 0.05% Tween 20, 100 μl/well), and biotinylate human TTR (stock solution concentration 1.0 mg/ml) diluted 750-fold with PBST was added at 20 μl/well. The plate was subjected to centrifugation (1000 rpm, 1 min) and stood still at room temperature for 1.5 hr or overnight at 4° C. The plate was washed 3 times with PBST (100 μl/well), and His-tagged human RBP4 (stock solution concentration 0.96 mg/ml) diluted 4000-fold with a reaction buffer (50 mM Tris-HCl, 150 mM NaCl, 0.005% Tween 20, 1 mM DTT, 0.1% BSA) was added at 10 μl/well. The dilution series (8 doses from 10 mM, 200-fold concentration) of the compound was prepared with DMSO, and 1 μl of each was added to a reaction buffer (200 μl) containing retinol (50 nM) (Sigma-Aldrich Co.). A reaction buffer (200 μl) containing retinol and added with DMSO was used as a positive control, and reaction buffer (200 μl) free of retinol and added with DMSO was used as a negative control. Mixed solutions of retinol and the compound were added to the plate at 15 μl/well. The plate was stirred in a platemixer subjected to centrifugation (1000 rpm, 1 min) and reacted at room temperature for 2 hr. A 35% Block Ace solution diluted with the reaction buffer was added at 10 μl/well, centrifuged (1000 rpm, 1 min) and reacted at room temperature for 30 min. The plate was washed 3 times with PBST (100 μl/well) and SuperSignal ELISA Femto Maximum Sensitivity Substrate reagent (PIERCE, Thermo Fisher Scientific Inc.) was added at 30 μl/well, and the luminescence was measured by a platereader (Wallac).
The binding inhibitory activity of the compound was determined by 100×(positive control value-test compound value)/(positive control value-negative control value). The binding activity (IC50) was calculated from the binding inhibitory rate at each compound concentration using a graph drawing software, GraphPad Prism (GraphPad Software Inc.).

IC50 [nM] | SMILES
95 | CC(C)(C)c1ccccc1N1CCN(C(=O)C23CC4CC(CC(C(=O)O)(C4)C2)C3)CC1 [Example 1, 3-{[4-(2-tert-Butylphenyl)piperazin-1-yl]carbonyl}adamantane-1-carboxylic acid]
3.8 | CC(C)(C)c1ccccc1N1CCN(C(=O)c2c[nH]cn2)CC1 [Example 3, 1-(2-tert-Butylphenyl)-4-(1H-imidazol-4-ylcarbonyl)piperazine]
34 | CC(C)(C)c1ccccc1N1CCN(C(=O)CC2NC(=O)NC2=O)CC1 (centres unmarked) [Example 90, 5-{2-[4-(2-tert-Butylphenyl)piperazin-1-yl]-2-oxoethyl}imidazolidine-2,4-dione]
330 | CC(C)(C)c1ccccc1N1CCN(C(=O)C(O)CO)CC1 (centres unmarked) [Example 110, 3-[4-(2-tert-Butylphenyl)piperazin-1-yl]-3-oxopropane-1,2-diol]

The next lines start with the compound.

SMILES | IC50 [nM]
CC(C)(C)c1ccccc1N1CCN(C(=O)c2ccc(-c3noc(=O)[nH]3)cc2)CC1 [Example 19, 3-(4-{[4-(2-tert-Butylphenyl)piperazin-1-yl]carbonyl}phenyl)-1,2,4-oxadiazol-5(4H)-one] | 49
CC(C)(C)c1ccccc1N1CCN(C(=O)c2ccc(C(=O)O)cc2)CC1 [Example 34, 4-{[4-(2-tert-Butylphenyl)piperazin-1-yl]carbonyl}benzoic acid] | 480
CC(C)(C)c1ccccc1N1CCN(C(=O)c2ccc(OCC3CCNCC3)cc2)CC1 [Example 41, 1-(2-tert-Butylphenyl)-4-{[4-(piperidin-4-ylmethoxy)phenyl]carbonyl}piperazine] | 250
CC(C)(C)c1ccccc1N1CCN(C(=O)Nc2ccccc2)CC1 [Example 56, 4-(2-tert-Butylphenyl)-N-phenylpiperazine-1-carboxamide] | 58
